This note sets out measurements from patent US9227977B2, “Phosphoinositide 3-kinase inhibitors” (RESPIVERT LTD., priority 2013, dated 2016).

Read-outs that look alike come from different tables or passages of the source.

The term IC50 denotes the concentration needed to halve the response being measured.

For one test, the target named is PI3K β (Homo sapiens (Human), UniProt P42338). Nature of the test: PI3K enzyme inhibition assay (HTRF TR-FRET). It counts as biochemical. From the text:
(§1) The PI3K enzymes catalyse the phosphorylation of phosphatidylinositol 4,5-biphosphate (PIP2) to phosphatidylinositol 3,4,5-triphosphate (PIP3) in the presence of ATP and Mg^2+ ions. The PIP3 product can be detected by displacement of biotin-PIP3 from energy transfer complexes consisting of europium labelled anti-GST monoclonal antibody, a GST-tagged Pleckstrin homology (PH) domain, biotinylated PIP3 and streptavidin-allophycocyanin (APC) by the time-resolved fluorescence resonance energy transfer (TR-FRET) (HTRF®PI3K enzyme assay, Millipore). Excitation, at 330 nm, of europium in the complex results in an energy transfer to the APC and a fluorescent emission at 665 nm although europium itself emits at its characteristic wavelength of 620 nm. The PIP3 product formed by PI3K activity displaces biotin-PIP3 from the complex and results in a loss of energy transfer (decreasing signal).
(§2) The compound to be tested was added, at the desired final concentrations, to a mixture of PIP2 substrate and a recombinant PI3K enzyme (either α, β or δ isoforms, ex Millipore, or γ isoform [p110γ+p101 construct], ex United States Biological, Swampscott, Mass.) and the mixture incubated for 2 hr at RT. Following this incubation period, ATP (10 μM) was added to the enzyme/compound/PIP2 substrate mixture and the resulting mixture was incubated for a further 30 min at RT. A stopping solution containing biotinylated PIP3 and the detection mix containing the GST tagged GRP1 pleckstrin homology (PH) domain and fluorophores were then added and the mixture was incubated at RT for 15-18 hr, prior to detection in a fluorescence microplate reader (Synergy 4, BioTek UK, Bedfordshire, UK).
The results were calculated according to the formula: APC signal (emission at 665 nm)/europium signal (emission at 620 nm)×10^4. The percentage inhibition of each reaction was calculated relative to DMSO treated control, and the 50% inhibitory concentration (IC50 value) then calculated from the concentration-response curve.

Test [1] concerns the target T1, PI3K δ (Homo sapiens (Human), UniProt O00329). As to the kind of experiment: PI3K δ cell based assay: H2O2-induced Akt phosphorylation in d-U937 cells. The note with it: inhibition of induced Akt phosphorylation, H2O2 stimulus; read-out: REC50 values in d-U937 cells, H2O2 stimulus. The protocol: As a means of assessing PI3K δ activation in response to stimuli, the phosphorylation status of the protein, Akt, a downstream product of PI3Kδ, signaling was determined.
U937 cells, obtained from a human, leukemic, monocyte lymphoma cell line, were differentiated to macrophage-type cells by incubation with PMA (100 ng/mL) for 48 to 72 hr. Cells were then pre-incubated with either the test compound or vehicle for 2 hr and were then stimulated briefly by exposure to H2O2 (10 mM, 5-7 min) and the reaction stopped by replacing the media with 4% formaldehyde solution. […] After washing with buffer (PBS containing 0.1% Triton X-100), cells were incubated with an HRP-conjugated secondary antibody (Dako) and the resultant signal was determined colorimetrically (OD: 450 nm with a reference wavelength of 655 nm) using TMB substrate (substrate reagent pack supplied by R&D Systems, Inc.).
This reaction was stopped by the addition of H2SO4 solution (100 μL). […] After washing with buffer (PBS containing 0.1% Triton X-100) 1% SDS (100 μL) was added to each well and the plates were shaken lightly for 1 hr prior to measuring the absorbance at 595 nm (Varioskan® Flash, Thermo-Fisher Scientific). The measured OD450-655 readings were corrected for cell number by dividing the OD450-655 by the OD595 readings. The ratio of pAkt signal to total Akt signal was used to quantitate the extent of PI3K δ activation. […]

Another test has as its target PI3K γ (Homo sapiens (Human), UniProt P48736). As to the kind of experiment: PI3K enzyme inhibition assay (HTRF TR-FRET). It counts as biochemical.
Excerpt: as §1
as §2, with “Following this incubation period, ATP (10 μM) was added to the enzyme/compound/PIP2 substrate mixture and the resulting mixture was incubated for a further 30 min at RT.” left out
(§3) The results were calculated according to the formula: APC signal (emission at 665 nm)/europium signal (emission at 620 nm)×10^4.
Background: TR-FRET usually uses a lanthanide donor and a delayed reading to cut background.

The next test concerns the target PI3K α (Homo sapiens (Human), UniProt P42336). Nature of the test: PI3K enzyme inhibition assay (HTRF TR-FRET). It counts as biochemical.
Excerpt: as §1
as §2, with “Following this incubation period, ATP (10 μM) was added to the enzyme/compound/PIP2 substrate mixture and the resulting mixture was incubated for a further 30 min at RT.” left out
as §3

The target in test [2] is T1, PI3K δ. Nature of the test: PI3K enzyme inhibition assay (HTRF TR-FRET). It counts as biochemical.
Excerpt: as §1
as §2, with “Following this incubation period, ATP (10 μM) was added to the enzyme/compound/PIP2 substrate mixture and the resulting mixture was incubated for a further 30 min at RT.” left out
as §3

Sequence of PI3K β (P42338 whole entry, species assumed): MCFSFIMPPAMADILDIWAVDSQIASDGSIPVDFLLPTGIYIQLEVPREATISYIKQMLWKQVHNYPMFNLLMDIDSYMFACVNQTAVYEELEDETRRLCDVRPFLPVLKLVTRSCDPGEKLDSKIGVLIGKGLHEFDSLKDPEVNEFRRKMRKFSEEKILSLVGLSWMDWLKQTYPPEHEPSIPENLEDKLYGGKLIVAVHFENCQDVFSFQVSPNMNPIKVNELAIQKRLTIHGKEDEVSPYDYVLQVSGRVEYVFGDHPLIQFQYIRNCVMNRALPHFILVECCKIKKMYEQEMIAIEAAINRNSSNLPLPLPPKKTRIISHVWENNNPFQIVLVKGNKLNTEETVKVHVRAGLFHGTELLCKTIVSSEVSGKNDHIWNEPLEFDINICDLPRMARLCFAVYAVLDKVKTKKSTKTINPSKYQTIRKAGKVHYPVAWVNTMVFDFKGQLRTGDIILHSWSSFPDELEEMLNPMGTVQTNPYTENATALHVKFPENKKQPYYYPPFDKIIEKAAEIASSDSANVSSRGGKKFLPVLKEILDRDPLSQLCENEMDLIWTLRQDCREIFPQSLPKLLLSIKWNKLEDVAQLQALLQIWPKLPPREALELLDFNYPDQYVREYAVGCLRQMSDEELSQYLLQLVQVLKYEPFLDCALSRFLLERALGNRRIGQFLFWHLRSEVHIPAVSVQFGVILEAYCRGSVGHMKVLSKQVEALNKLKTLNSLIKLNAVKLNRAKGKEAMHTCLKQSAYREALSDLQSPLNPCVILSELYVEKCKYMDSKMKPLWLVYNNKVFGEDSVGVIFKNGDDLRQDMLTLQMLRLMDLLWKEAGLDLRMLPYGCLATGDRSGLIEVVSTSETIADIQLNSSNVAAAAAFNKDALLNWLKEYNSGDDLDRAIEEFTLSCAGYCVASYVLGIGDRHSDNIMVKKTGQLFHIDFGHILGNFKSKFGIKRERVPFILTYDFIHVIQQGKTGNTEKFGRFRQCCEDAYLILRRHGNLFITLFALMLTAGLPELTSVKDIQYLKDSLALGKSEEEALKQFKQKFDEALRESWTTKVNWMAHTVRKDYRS
Sequence of PI3K β (P27986 whole entry partner, species assumed): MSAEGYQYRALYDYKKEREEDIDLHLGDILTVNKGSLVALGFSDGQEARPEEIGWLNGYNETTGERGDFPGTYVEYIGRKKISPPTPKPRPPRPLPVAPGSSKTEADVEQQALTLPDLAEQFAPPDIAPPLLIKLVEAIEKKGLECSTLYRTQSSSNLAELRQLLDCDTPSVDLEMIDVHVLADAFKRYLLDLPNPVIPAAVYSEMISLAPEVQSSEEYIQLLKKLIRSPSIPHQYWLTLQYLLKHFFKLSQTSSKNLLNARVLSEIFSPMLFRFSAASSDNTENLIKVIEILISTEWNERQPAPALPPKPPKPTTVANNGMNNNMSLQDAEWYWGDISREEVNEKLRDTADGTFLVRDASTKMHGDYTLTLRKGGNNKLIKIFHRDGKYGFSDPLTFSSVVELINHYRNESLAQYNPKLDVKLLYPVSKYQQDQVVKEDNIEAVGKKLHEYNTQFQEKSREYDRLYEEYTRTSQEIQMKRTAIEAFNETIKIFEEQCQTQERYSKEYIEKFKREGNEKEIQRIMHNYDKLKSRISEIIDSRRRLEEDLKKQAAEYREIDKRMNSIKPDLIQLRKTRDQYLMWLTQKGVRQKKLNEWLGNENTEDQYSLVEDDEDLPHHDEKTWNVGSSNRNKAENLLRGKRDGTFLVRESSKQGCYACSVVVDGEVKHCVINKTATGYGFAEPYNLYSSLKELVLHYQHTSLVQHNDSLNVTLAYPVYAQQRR
Sequence of PI3K α (P42336 whole entry, species assumed): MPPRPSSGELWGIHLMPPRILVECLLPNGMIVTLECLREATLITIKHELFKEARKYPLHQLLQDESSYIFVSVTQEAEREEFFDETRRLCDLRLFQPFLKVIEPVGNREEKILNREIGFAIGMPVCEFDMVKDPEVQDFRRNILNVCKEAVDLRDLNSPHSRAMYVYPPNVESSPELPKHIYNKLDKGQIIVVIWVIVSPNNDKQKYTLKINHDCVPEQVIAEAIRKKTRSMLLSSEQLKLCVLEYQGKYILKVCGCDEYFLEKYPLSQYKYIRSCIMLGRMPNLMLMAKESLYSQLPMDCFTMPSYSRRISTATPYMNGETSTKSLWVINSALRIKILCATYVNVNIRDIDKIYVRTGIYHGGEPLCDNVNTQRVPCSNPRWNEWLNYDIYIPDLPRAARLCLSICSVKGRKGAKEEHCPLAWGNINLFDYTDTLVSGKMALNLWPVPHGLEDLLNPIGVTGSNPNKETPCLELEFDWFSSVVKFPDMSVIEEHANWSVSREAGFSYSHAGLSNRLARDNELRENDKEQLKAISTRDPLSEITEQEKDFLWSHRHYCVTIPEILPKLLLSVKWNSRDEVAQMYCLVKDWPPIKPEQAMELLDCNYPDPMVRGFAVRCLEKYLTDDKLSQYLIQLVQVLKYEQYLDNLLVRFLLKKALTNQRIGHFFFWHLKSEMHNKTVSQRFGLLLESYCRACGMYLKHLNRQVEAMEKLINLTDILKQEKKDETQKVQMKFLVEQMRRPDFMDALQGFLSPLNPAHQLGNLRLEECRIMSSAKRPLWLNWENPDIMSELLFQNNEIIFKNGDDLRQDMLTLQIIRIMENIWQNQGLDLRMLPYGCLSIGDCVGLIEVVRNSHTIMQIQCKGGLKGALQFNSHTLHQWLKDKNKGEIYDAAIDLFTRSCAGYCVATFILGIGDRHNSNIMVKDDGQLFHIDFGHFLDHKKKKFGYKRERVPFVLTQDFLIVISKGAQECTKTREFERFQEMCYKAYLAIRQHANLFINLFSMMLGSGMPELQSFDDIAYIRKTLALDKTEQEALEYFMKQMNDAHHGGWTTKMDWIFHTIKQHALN
Sequence of PI3K α (P27986 whole entry partner, species assumed): as the sequence (P27986 whole entry partner, species assumed) above
Sequence of PI3K γ (P48736 whole entry, species assumed): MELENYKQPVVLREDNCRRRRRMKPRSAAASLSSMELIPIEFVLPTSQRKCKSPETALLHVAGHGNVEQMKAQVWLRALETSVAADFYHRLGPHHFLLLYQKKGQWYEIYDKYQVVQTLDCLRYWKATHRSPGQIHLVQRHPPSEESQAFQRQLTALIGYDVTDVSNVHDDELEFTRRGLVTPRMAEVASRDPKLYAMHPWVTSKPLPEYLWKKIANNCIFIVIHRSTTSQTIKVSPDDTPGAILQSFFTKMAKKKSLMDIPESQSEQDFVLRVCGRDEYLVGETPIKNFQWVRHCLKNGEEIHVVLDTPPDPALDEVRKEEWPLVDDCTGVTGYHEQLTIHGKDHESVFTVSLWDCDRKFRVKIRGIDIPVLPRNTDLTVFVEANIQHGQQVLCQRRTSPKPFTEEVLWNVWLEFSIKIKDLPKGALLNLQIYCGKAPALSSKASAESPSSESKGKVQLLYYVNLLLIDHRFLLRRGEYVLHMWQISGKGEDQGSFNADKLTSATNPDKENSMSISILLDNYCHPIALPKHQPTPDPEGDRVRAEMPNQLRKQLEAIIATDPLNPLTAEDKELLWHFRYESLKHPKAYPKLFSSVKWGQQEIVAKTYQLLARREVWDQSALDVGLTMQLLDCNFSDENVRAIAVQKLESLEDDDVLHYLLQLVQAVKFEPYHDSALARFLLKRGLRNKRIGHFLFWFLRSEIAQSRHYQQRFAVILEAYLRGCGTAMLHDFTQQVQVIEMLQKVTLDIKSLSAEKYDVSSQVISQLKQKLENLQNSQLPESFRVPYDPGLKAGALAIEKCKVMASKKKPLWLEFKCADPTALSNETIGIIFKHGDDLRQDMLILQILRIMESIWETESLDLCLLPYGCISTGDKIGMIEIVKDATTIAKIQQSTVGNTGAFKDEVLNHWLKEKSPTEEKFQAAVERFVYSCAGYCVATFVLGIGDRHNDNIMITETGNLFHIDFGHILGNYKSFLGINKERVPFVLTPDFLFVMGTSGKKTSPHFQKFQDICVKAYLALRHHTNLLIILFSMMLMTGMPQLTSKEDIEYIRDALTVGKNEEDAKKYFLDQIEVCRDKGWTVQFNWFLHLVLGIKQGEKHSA
Sequence of PI3K γ (Q8WYR1 whole entry partner, species assumed): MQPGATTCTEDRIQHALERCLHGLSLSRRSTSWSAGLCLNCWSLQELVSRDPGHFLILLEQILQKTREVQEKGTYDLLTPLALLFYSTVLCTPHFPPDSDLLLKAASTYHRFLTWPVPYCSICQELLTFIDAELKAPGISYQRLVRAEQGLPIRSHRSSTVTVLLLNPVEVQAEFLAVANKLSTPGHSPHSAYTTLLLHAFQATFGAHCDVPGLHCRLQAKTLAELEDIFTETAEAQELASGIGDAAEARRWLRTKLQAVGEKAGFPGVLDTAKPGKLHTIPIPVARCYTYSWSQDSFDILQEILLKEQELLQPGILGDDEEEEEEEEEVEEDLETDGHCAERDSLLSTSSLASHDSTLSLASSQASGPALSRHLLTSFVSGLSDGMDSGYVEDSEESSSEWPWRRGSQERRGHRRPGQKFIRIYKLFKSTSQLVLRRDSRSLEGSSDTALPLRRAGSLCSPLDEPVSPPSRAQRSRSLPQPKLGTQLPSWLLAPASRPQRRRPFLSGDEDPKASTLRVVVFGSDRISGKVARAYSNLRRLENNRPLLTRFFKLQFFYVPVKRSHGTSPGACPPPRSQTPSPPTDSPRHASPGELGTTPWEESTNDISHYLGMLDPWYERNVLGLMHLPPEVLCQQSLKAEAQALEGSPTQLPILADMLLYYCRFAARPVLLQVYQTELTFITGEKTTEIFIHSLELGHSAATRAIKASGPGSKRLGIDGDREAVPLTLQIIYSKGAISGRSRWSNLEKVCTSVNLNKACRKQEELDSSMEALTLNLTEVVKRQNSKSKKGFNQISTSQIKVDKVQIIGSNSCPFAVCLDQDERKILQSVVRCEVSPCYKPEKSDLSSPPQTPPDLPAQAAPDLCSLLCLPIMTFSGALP

For `COCCOCCOCC#Cc1cccc2nc(Cn3nc(-c4cc(O)cc(F)c4)c4c(N)ncnc43)n(Cc3ccccc3C(F)(F)F)c(=O)c12` [Compound (I), 2-((4-Amino-3-(3-fluoro-5-hydroxyphenyl)-1H-pyrazolo[3,4-d]pyrimidin-1-yl)methyl)-5-(3-(2-(2-methoxyethoxy)ethoxy)prop-1-yn-1-yl)-3-(2-(trifluoromethyl)benzyl)quinazolin-4(3H)-one], the “inhibitory activity versus PI3K β in enzyme assays (in words)” value at PI3K β is given as “low inhibitory activity”. For the same compound, the IC50 on PI3K β (read-out: IC50 Values for PI3K inhibition at isozyme indicated, PI3K β) was 4890 nM; on PI3K β (read-out: PI3 Kinase Inhibition IC50 value at state isozyme, β), 4890 nM; on PI3K γ (read-out: IC50 Values for PI3K inhibition at isozyme indicated, PI3K γ), 28 nM; at PI3K γ (read-out: PI3 Kinase Inhibition IC50 value at state isozyme, γ), 28 nM; on PI3K α (read-out: IC50 Values for PI3K inhibition at isozyme indicated, PI3K α) it was > 13900 nM; on PI3K α (read-out: PI3 Kinase Inhibition IC50 value at state isozyme, α), > 13900 nM. In addition, the IC50 at PI3K δ [2] (read-out: IC50 Values for PI3K inhibition at isozyme indicated, PI3K δ) is 2.5 nM; at PI3K δ [2] (read-out: PI3 Kinase Inhibition IC50 value at state isozyme, δ) it was 2.5 nM. For the same compound, the EC50 at PI3K δ [1] is 7.4 nM. Besides, the “inhibitory activity versus PI3K α in enzyme assays (in words)” value at PI3K α is on record as “no inhibitory activity”.
